In brackets after ≈: the same amount, converted by molar mass.
Key:
[1] = Metabolic stability in rat liver microsomes assessed as half life at 1 uM preincubated for 10 mins followed by NADPH addition and measured after 30 mins by LC/MS/MS analysis; format: ADME, Microsome; settings: time 40 min
[2] = target: T1, Mitogen-activated protein kinase 14 (Homo sapiens, UniProt Q16539); assay: Inhibition of human recombinant full length GST-tagged p38alpha expressed in Escherichia coli preincubated for 2 hrs followed by ATP addition and measured after 1 hr by Alpha screen assay
[3] = Inhibition of LPS-stimulated TNFalpha release in human PBMC cells preincubated for 1 hr followed by LPS stimulation and measured after 18 hrs; format: functional, cell-based
[4] = target: T1, Mitogen-activated protein kinase 14; assay: Displacement of SKF-86002 from human inactivated p38alpha assessed as dissociation half life incubated for 2 hrs by fluorescence based analysis
[5] = target: Mitogen-activated protein kinase 11 (Homo sapiens, UniProt Q15759); assay: Inhibition of recombinant human full length His-tagged p38beta expressed in baculovirus expression system preincubated for 2 hrs followed by ATP addition and measured after 1 hr by Alpha screen assay
[6] = target: T2, Mitogen-activated protein kinase 12 (Homo sapiens, UniProt P53778); assay: Inhibition of recombinant human full length His-tagged p38gamma expressed in baculovirus expression system preincubated for 2 hrs followed by ATP addition and measured after 1 hr by Alpha screen assay
T2 sequence (P53778 whole entry): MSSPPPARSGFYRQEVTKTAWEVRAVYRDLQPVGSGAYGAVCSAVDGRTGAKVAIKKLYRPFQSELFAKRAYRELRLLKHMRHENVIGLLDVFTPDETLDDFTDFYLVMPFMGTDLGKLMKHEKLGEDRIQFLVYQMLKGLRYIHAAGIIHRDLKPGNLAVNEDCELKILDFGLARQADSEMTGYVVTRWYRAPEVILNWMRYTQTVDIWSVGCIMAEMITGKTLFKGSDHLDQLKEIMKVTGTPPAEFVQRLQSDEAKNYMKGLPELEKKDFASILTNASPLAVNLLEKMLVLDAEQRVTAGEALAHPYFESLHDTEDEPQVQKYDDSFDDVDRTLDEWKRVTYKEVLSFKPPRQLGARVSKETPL

[7] = target: T3, Mitogen-activated protein kinase 13 (Homo sapiens, UniProt O15264); assay: Inhibition of recombinant human full length His-tagged p38delta expressed in baculovirus expression system preincubated for 2 hrs followed by ATP addition and measured after 1 hr by Alpha screen assay
T3 sequence (O15264 whole entry): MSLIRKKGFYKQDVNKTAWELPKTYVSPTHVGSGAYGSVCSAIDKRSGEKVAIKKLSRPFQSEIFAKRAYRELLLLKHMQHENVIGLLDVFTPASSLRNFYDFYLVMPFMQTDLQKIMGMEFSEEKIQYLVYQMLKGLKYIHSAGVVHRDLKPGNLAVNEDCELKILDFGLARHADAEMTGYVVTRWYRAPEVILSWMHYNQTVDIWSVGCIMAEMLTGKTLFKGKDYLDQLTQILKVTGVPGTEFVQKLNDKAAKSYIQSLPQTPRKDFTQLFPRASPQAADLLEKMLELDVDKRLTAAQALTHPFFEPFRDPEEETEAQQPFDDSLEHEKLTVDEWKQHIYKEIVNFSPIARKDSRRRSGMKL

[8] = Solubility of the compound at >=1 mg/ml measured after 30 mins by HPLC analysis; format: physicochemical
[9] = Permeability across apical to basolateral side in human Caco-2 cells at 10 uM measured after 60 mins by LC/MS/MS analysis; format: ADME, cell-based; settings: read-out: permeability
[10] = Protein binding in rat plasma at 10 uM incubated for 4 hrs by LC/MS/MS analysis; format: ADME, cell-free; settings: read-out: PPB (converted)
[11] = Protein binding in rat lung homogenate at 10 uM incubated for 4 hrs by LC/MS/MS analysis; format: ADME, tissue-based; settings: read-out: PB (converted)
[12] = Cmax in Sprague-Dawley rat plasma at 0.03 mg/kg, IT measured after 0.8 hrs by LC/MS/MS analysis; format: ADME, organism-based; design: dose 0.03 mg/kg, time 0.8 hrs, route it
[13] = Cmax in Sprague-Dawley rat lung homogenate at 0.03 mg/kg, IT measured after 0.8 hrs by LC/MS/MS analysis; format: ADME, organism-based; design: time 0.8 hrs, dose 0.03 mg/kg, route it
[14] = Selectivity index, ratio of drug concentration in Sprague-Dawley rat lung homogenate to IC50 for human p38alpha; format: tissue-based; settings: tissue homogenate
[15] = Drug uptake in Sprague-Dawley rat lung homogenate at 0.03 mg/kg, IT measured after 7 hrs by LC/MS/MS analysis; format: ADME, organism-based; settings: in vivo, other
[16] = Drug uptake in Sprague-Dawley rat lung homogenate at 0.03 mg/kg, IT measured after 24 hrs by LC/MS/MS analysis; format: ADME, organism-based; settings: in vivo, other
[17] = Efflux ratio of permeability in human Caco-2 cells at 10 uM measured after 60 mins by LC-MS/MS analysis; format: ADME, cell-based
Rattus norvegicus [18] = assay: Antiinflammatory activity against LPS-induced Sprague-Dawley rat inflammatory model assessed as inhibition of neutrophil cells release in BALF at 0.3 mg/kg, IT measured after 12 hrs relative to control; format: functional
[19] = Drug concentration in Sprague-Dawley rat lung homogenate at 0.3 mg/kg, IT measured after 24 hrs by LC/MS/MS analysis; format: ADME, organism-based; settings: read-out: Ct
Rattus norvegicus [20] = assay: Antiinflammatory activity against LPS-induced Sprague-Dawley rat inflammatory model assessed as inhibition of neutrophil cells release in BALF at 0.1 mg/kg, IT preincubated for 2 hrs followed by LPS-stimulation and measured after 4 hrs relative to control; format: functional; design: scale not given: the % may be the effect or the level left; settings: time 6 hrs
[21] = Protein binding in human plasma at 10 uM incubated for 4 hrs by LC/MS/MS analysis; format: ADME, cell-free; settings: read-out: PPB
Rattus norvegicus [22] = assay: Antiinflammatory activity against LPS-induced Sprague-Dawley rat inflammatory model assessed as inhibition of neutrophil cells release in BALF at 1 mg/kg, IT measured after 1 hr relative to control; format: functional
Rattus norvegicus [23] = assay: Antiinflammatory activity against LPS-induced Sprague-Dawley rat inflammatory model assessed as inhibition of neutrophil cells release in BALF at 1 mg/kg, IT measured after 24 hrs relative to control; format: functional
[24] = Drug concentration in Sprague-Dawley rat lung homogenate at 1 mg/kg, IT measured after 24 hrs by LC/MS/MS analysis; format: ADME, organism-based; settings: read-out: Ct
[25] = Terminal half life in Sprague-Dawley rat lung homogenate at 0.03 mg/kg, IT measured after 24 hrs by LC/MS/MS analysis; format: ADME, organism-based; settings: read-out: beta t1/2

Chain of Mitogen-activated protein kinase 11 (Q15759 whole entry): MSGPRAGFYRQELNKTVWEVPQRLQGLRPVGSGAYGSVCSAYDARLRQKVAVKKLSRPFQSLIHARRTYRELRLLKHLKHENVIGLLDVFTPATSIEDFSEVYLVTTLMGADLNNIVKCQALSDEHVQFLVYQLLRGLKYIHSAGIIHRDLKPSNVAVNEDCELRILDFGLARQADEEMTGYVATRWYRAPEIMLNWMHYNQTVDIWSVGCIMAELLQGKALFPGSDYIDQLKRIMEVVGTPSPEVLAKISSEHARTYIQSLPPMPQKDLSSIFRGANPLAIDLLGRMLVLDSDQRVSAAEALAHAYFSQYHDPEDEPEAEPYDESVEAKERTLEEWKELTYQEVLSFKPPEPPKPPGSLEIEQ
T1 sequence (Q16539 whole entry): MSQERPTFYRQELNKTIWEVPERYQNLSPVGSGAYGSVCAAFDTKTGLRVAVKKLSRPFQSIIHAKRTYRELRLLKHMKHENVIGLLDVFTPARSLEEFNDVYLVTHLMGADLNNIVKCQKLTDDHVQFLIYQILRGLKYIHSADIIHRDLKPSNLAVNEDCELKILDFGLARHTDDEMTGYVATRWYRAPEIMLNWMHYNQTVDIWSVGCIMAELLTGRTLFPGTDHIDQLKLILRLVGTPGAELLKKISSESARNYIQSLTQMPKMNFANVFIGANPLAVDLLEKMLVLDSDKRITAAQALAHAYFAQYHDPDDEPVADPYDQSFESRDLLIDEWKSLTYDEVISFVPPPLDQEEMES

half-life at 1 µM [1] [min]	IC50 [2] [nM]	IC50 [3] [nM]	T1/2 [4] [h]	IC50 [5] [nM]	IC50 [6] [nM]	IC50 [7] [nM]	solubility at 0.5 h [8] [µg/mL]	Papp A→B at 1 h, 10 µM [9] [×10⁻⁶ cm/s]	fraction unbound at 4 h, 10 µM [10]	fraction unbound at 4 h, 10 µM [11]	Cmax [12] [nM]	Cmax [13] [nM]	Drug uptake [15] [%]	Drug uptake [16] [%]	efflux ratio at 1 h, 10 µM [17]	concentration at 24 h [19] [µM]	Structure (SMILES)	Ratio [14]	inhibition in vivo at 0.3 mg/kg (Rattus norvegicus [18]) [%]	also measured
15	0.3	1	> 16	0.8	10	931	10 (≈ 15.4 µM)	3.3	0.001	0.009	50	5070	99	23	> 2.5	10.3	Cc1ccc(-n2nc(C(C)(C)C)cc2NC(=O)N[C@H]2CC[C@@H](Oc3ccc4nnc(N5CCC(CO)CC5)n4c3)c3ccccc32)cc1	> 300	19	
		8															CC(C)(C)c1cc(NC(=O)NCc2ccccc2Sc2ccc3nnc(-c4ccccc4SCCO)n3c2)n(-c2ccc(O)c(Cl)c2)n1 [PF-03715455]			Activity (Rattus norvegicus [20]): 14%
< 10	0.2	0.1	> 16	0.2	164	> 5000	10 (≈ 17.3 µM)	2.8	< 0.001	0.004	90	1080	8.4	9.6			Cc1ccc(-n2nc(C(C)(C)C)cc2NC(=O)N[C@H]2CC[C@@H](Oc3ccc4nnc(C(C)C)n4c3)c3ccccc32)cc1	149		fraction unbound at 4 h, 10 µM [21]: 0.001; inhibition in vivo at 1 mg/kg (Rattus norvegicus [22]): 50%; inhibition in vivo at 1 mg/kg (Rattus norvegicus [23]): -3%; concentration at 24 h [24]: 29.8 µM; half-life [25]: > 1440 min
20	0.2	1	> 16	1.3	2860	> 10000	100 (≈ 142 µM)	1.4	0.003	0.001	10	2700	8.4	1.6	> 2.5	0.97	C[C@H]1CCCCN1c1nnc2ccc(O[C@@H]3CC[C@H](NC(=O)Nc4cc(C(C)(C)C)nn4-c4cccc(OCCN(C)C)c4)c4ccccc43)cn12	4.9	49	
